In patent US9738634B2, “Heterocyclic amide compound and herbicide” (SYNGENTA PARTICIPATIONS AG, priority 2013, dated 2017):

How the values were obtained:
Format in all cases: in vivo
Settings in all cases: treatment dosage 320 g/ha
wheat [1] = test: Test Example 4: foliar treatment, effect on crop; e: wheat
How it was run: (§1)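 Seeds are spot-sown into sterilized diluvial soil and covered with about 1.5 cm of soil. After 14 days' greenhouse growth at 25 to 30° C, plants are sprayed on stems and leaves with diluted emulsion at the stated g/ha rate, then scored at 3 weeks.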

black-grass [2] = test: Test Example 4: weedkilling efficacy by foliar treatment; H: black-grass
How it was run: as §1

chickweed [3] = test: Test Example 3: weedkilling efficacy through soil treatment; N: chickweed
How it was run: (§2)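 Crop and weed responses were judged three weeks after a uniform surface spray of the water-diluted emulsion at the given g/ha rate. Seeds sat beneath about 1.5 cm of sterilized diluvial soil, and boxes stood in a greenhouse at 25 to 30° C.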

green foxtail [4] = test: Test Example 4: weedkilling efficacy by foliar treatment; E: green foxtail
How it was run: as §1

wild oat [5] = test: Test Example 4: weedkilling efficacy by foliar treatment; G: wild oat
How it was run: as §1

fig-leafed goosefoot [6] = test: Test Example 3: weedkilling efficacy through soil treatment; M: fig-leafed goosefoot
How it was run: as §2

directly sown rice [7] = test: Test Example 3: soil treatment, effect on crop; b: directly sown rice
How it was run: as §2

corn [8] = test: Test Example 4: foliar treatment, effect on crop; c: corn
How it was run: as §1

Indian mallow [9] = test: Test Example 3: weedkilling efficacy through soil treatment; K: Indian mallow
How it was run: as §2

common wind-grass [10] = test: Test Example 3: weedkilling efficacy through soil treatment; J: common wind-grass
How it was run: as §2

green foxtail [11] = test: Test Example 3: weedkilling efficacy through soil treatment; E: green foxtail
How it was run: as §2

barnyard grass [12] = test: Test Example 2: weedkilling efficacy, growth period weed treatment in the submerged state; A: barnyard grass
How it was run: (§3)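 First, alluvial soil in pots is flooded to 4 cm and mixed seed is sown. Next, plants grow in a greenhouse at 25 to 30° C until the 1-2 leaf stage. Then diluted emulsion is applied onto the water surface at the given g/ha rate, and injury is assessed after 3 weeks.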

beet [13] = test: Test Example 4: foliar treatment, effect on crop; f: beet
How it was run: as §1

barnyard grass [14] = test: Test Example 1: weedkilling efficacy, preemergent weed treatment in the submerged state; A: barnyard grass
How it was run: (§4)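 Emulsion diluted with water to the specified per-hectare dosage is applied onto flood water (4 cm) over alluvial soil on the sowing day, with barnyard grass, bulrush and pondweed seeded and rice (2.5-leaf) transplanted; plants grow at 25–30 °C and are rated at 3 weeks.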

oval-leafed pondweed [15] = test: Test Example 2: weedkilling efficacy, growth period weed treatment in the submerged state; C: oval-leafed pondweed
How it was run: as §3

rapeseed [16] = test: Test Example 4: foliar treatment, effect on crop; g: rapeseed
How it was run: as §1

crabgrass [17] = test: Test Example 4: weedkilling efficacy by foliar treatment; D: crabgrass
How it was run: as §1

transplanted rice = test: Test Example 1: preemergent weed treatment in the submerged state, effect on crop; a: transplanted rice
How it was run: as §4

bulrush [18] = test: Test Example 2: weedkilling efficacy, growth period weed treatment in the submerged state; B: bulrush
How it was run: as §3

barnyard grass [19] = test: Test Example 3: weedkilling efficacy through soil treatment; F: barnyard grass
How it was run: as §2

catchweed = test: Test Example 4: weedkilling efficacy by foliar treatment; O: catchweed
How it was run: as §1

Indian mallow [20] = test: Test Example 4: weedkilling efficacy by foliar treatment; K: Indian mallow
How it was run: as §1

fig-leafed goosefoot [21] = test: Test Example 4: weedkilling efficacy by foliar treatment; M: fig-leafed goosefoot
How it was run: as §1

wheat [22] = test: Test Example 3: soil treatment, effect on crop; e: wheat
How it was run: as §2

beet [23] = test: Test Example 3: soil treatment, effect on crop; f: beet
How it was run: as §2

common wind-grass [24] = test: Test Example 4: weedkilling efficacy by foliar treatment; J: common wind-grass
How it was run: as §1

barnyard grass [25] = test: Test Example 4: weedkilling efficacy by foliar treatment; F: barnyard grass
How it was run: as §1

crabgrass [26] = test: Test Example 3: weedkilling efficacy through soil treatment; D: crabgrass
How it was run: as §2

black-grass [27] = test: Test Example 3: weedkilling efficacy through soil treatment; H: black-grass
How it was run: as §2

birds-eye speedwell = test: Test Example 4: weedkilling efficacy by foliar treatment; p: birds-eye speedwell
How it was run: as §1

bulrush [28] = test: Test Example 1: weedkilling efficacy, preemergent weed treatment in the submerged state; B: bulrush
How it was run: as §4

wild oat [29] = test: Test Example 3: weedkilling efficacy through soil treatment; G: wild oat
How it was run: as §2

rapeseed [30] = test: Test Example 3: soil treatment, effect on crop; g: rapeseed
How it was run: as §2

redroot pigweed [31] = test: Test Example 4: weedkilling efficacy by foliar treatment; L: redroot pigweed
How it was run: as §1

chickweed [32] = test: Test Example 4: weedkilling efficacy by foliar treatment; N: chickweed
How it was run: as §1

corn [33] = test: Test Example 3: soil treatment, effect on crop; c: corn
How it was run: as §2

oval-leafed pondweed [34] = test: Test Example 1: weedkilling efficacy, preemergent weed treatment in the submerged state; C: oval-leafed pondweed
How it was run: as §4

directly sown rice [35] = test: Test Example 4: foliar treatment, effect on crop; b: directly sown rice
How it was run: as §1

redroot pigweed [36] = test: Test Example 3: weedkilling efficacy through soil treatment; L: redroot pigweed
How it was run: as §2

Italian ryegrass [37] = test: Test Example 3: weedkilling efficacy through soil treatment; I: Italian ryegrass
How it was run: as §2

soybean [38] = test: Test Example 4: foliar treatment, effect on crop; d: soybean
How it was run: as §1

Italian ryegrass [39] = test: Test Example 4: weedkilling efficacy by foliar treatment; I: Italian ryegrass
How it was run: as §1

soybean [40] = test: Test Example 3: soil treatment, effect on crop; d: soybean
How it was run: as §2

CC1=C(c2cccnc2F)C(=O)N(C(C)(C)C(=O)Nc2cc(C(F)(F)F)cc(F)n2)CO1 [B-2-13]
e (wheat) effect on crop grade (wheat [1]): 0 (weed kill ratio 5% or less (practically no effect)) | H (black-grass) weedkilling efficacy grade (black-grass [2]): 5 (weed kill ratio 90% or more, (practically complete withering)) | N (chickweed) weedkilling efficacy grade (chickweed [3]): 3 (weed kill ratio 40% or more, less than 70%) | E (green foxtail) weedkilling efficacy grade (green foxtail [4]): 5 (weed kill ratio 90% or more, (practically complete withering)) | G (wild oat) weedkilling efficacy grade (wild oat [5]): 3 (weed kill ratio 40% or more, less than 70%) | M (fig-leafed goosefoot) weedkilling efficacy grade (fig-leafed goosefoot [6]): 3 (weed kill ratio 40% or more, less than 70%) | b (directly sown rice) effect on crop grade (directly sown rice [7]): 5 (weed kill ratio 90% or more, (practically complete withering)) | c (corn) effect on crop grade (corn [8]): 4 (weed kill ratio 70% or more, less than 90%) | K (Indian mallow) weedkilling efficacy grade (Indian mallow [9]): 0 (weed kill ratio 5% or less (practically no effect)) | J (common wind-grass) weedkilling efficacy grade (common wind-grass [10]): 5 (weed kill ratio 90% or more, (practically complete withering)) | E (green foxtail) weedkilling efficacy grade (green foxtail [11]): 5 (weed kill ratio 90% or more, (practically complete withering)) | A (barnyard grass) weedkilling efficacy grade (barnyard grass [12]): 5 (weed kill ratio 90% or more, (practically complete withering)) | f (beet) effect on crop grade (beet [13]): 4 (weed kill ratio 70% or more, less than 90%) | A (barnyard grass) weedkilling efficacy grade (barnyard grass [14]): 5 (weed kill ratio 90% or more, (practically complete withering)) | C (oval-leafed pondweed) weedkilling efficacy grade (oval-leafed pondweed [15]): 5 (weed kill ratio 90% or more, (practically complete withering)) | g (rapeseed) effect on crop grade (rapeseed [16]): 4 (weed kill ratio 70% or more, less than 90%) | D (crabgrass) weedkilling efficacy grade (crabgrass [17]): 5 (weed kill ratio 90% or more, (practically complete withering)) | a (transplanted rice) effect on crop grade (transplanted rice): 1 (weed kill ratio 5% or more, less than 20%) | B (bulrush) weedkilling efficacy grade (bulrush [18]): 5 (weed kill ratio 90% or more, (practically complete withering)) | F (barnyard grass) weedkilling efficacy grade (barnyard grass [19]): 5 (weed kill ratio 90% or more, (practically complete withering)) | O (catchweed) weedkilling efficacy grade (catchweed): 5 (weed kill ratio 90% or more, (practically complete withering)) | K (Indian mallow) weedkilling efficacy grade (Indian mallow [20]): 5 (weed kill ratio 90% or more, (practically complete withering)) | M (fig-leafed goosefoot) weedkilling efficacy grade (fig-leafed goosefoot [21]): 4 (weed kill ratio 70% or more, less than 90%) | e (wheat) effect on crop grade (wheat [22]): 0 (weed kill ratio 5% or less (practically no effect)) | f (beet) effect on crop grade (beet [23]): 4 (weed kill ratio 70% or more, less than 90%) | J (common wind-grass) weedkilling efficacy grade (common wind-grass [24]): 5 (weed kill ratio 90% or more, (practically complete withering)) | F (barnyard grass) weedkilling efficacy grade (barnyard grass [25]): 5 (weed kill ratio 90% or more, (practically complete withering)) | D (crabgrass) weedkilling efficacy grade (crabgrass [26]): 5 (weed kill ratio 90% or more, (practically complete withering)) | H (black-grass) weedkilling efficacy grade (black-grass [27]): 5 (weed kill ratio 90% or more, (practically complete withering)) | P (birds-eye speedwell) weedkilling efficacy grade (birds-eye speedwell): 5 (weed kill ratio 90% or more, (practically complete withering)) | B (bulrush) weedkilling efficacy grade (bulrush [28]): 5 (weed kill ratio 90% or more, (practically complete withering)) | G (wild oat) weedkilling efficacy grade (wild oat [29]): 5 (weed kill ratio 90% or more, (practically complete withering)) | g (rapeseed) effect on crop grade (rapeseed [30]): 4 (weed kill ratio 70% or more, less than 90%) | L (redroot pigweed) weedkilling efficacy grade (redroot pigweed [31]): 4 (weed kill ratio 70% or more, less than 90%) | N (chickweed) weedkilling efficacy grade (chickweed [32]): 4 (weed kill ratio 70% or more, less than 90%) | c (corn) effect on crop grade (corn [33]): 1 (weed kill ratio 5% or more, less than 20%) | C (oval-leafed pondweed) weedkilling efficacy grade (oval-leafed pondweed [34]): 5 (weed kill ratio 90% or more, (practically complete withering)) | b (directly sown rice) effect on crop grade (directly sown rice [35]): 3 (weed kill ratio 40% or more, less than 70%) | L (redroot pigweed) weedkilling efficacy grade (redroot pigweed [36]): 4 (weed kill ratio 70% or more, less than 90%) | I (Italian ryegrass) weedkilling efficacy grade (Italian ryegrass [37]): 5 (weed kill ratio 90% or more, (practically complete withering)) | d (soybean) effect on crop grade (soybean [38]): 4 (weed kill ratio 70% or more, less than 90%) | I (Italian ryegrass) weedkilling efficacy grade (Italian ryegrass [39]): 5 (weed kill ratio 90% or more, (practically complete withering)) | d (soybean) effect on crop grade (soybean [40]): 0 (weed kill ratio 5% or less (practically no effect))
